Laboratory results reported in ChEMBL document CHEMBL1129883, “Synthesis and cytotoxicity of 5-deazaflavins containing o- and p-quinone moieties” (Bioorg Med Chem Lett, 1997).

Assays:
[1] = system: KB; experiment: In vitro cytotoxicity determined against human epidermoid carcinoma KB cells by MTT assay; type: functional, cell-based
[2] = system: L1210; experiment: In vitro cytotoxicity determined against murine leukemia L1210 cells by MTT assay; type: functional, cell-based; details: Mus musculus

Compound | IC50 [1] | IC50 [2]
CCCCn1c2nc(=O)n(C)c(=O)c-2cc2c1C(=O)C(OC)=CC2=O | 900 nM | 1200 nM
CCCCCCCCCCCCn1c2nc(=O)n(-c3ccccc3)c(=O)c-2cc2c1C(=O)C(=O)c1ccccc1-2 | 17900 nM | 2800 nM
CCCCn1c2nc(=O)n(C)c(=O)c-2cc2c1C(=O)C(=O)c1ccccc1-2 | 200 nM | 400 nM
CCCCCCCCn1c2nc(=O)n(C)c(=O)c-2cc2c1C(=O)C(OC)=CC2=O | 5800 nM | 400 nM
CCCCCCCCn1c2nc(=O)n(C)c(=O)c-2cc2c1C(=O)C(=O)c1ccccc1-2 | 1700 nM | 400 nM
CCCCCCCCCCCCn1c2nc(=O)n(C)c(=O)c-2cc2c1C(=O)C(=O)c1ccccc1-2 | 200 nM | 300 nM
CCCCCCCCn1c2nc(=O)[nH]c(=O)c-2cc2c1C(=O)C(=O)c1ccccc1-2 | 3200 nM | 4200 nM
CCCCCCCCn1c2nc(=O)n(-c3ccccc3)c(=O)c-2cc2c1C(=O)C(OC)=CC2=O | 1000 nM | 1800 nM
CCCCCCCCCCCCn1c2nc(=O)n(C)c(=O)c-2cc2c1C(=O)C(OC)=CC2=O | 1800 nM | 100 nM
CCCCCCCCn1c2nc(=O)[nH]c(=O)c-2cc2c1C(=O)C(OC)=CC2=O | 1500 nM | 4400 nM
CCCCCCCCCCCCn1c2nc(=O)[nH]c(=O)c-2cc2c1C(=O)C(=O)c1ccccc1-2 | 6900 nM | 3000 nM
CCCCCCn1c2nc(=O)n(C)c(=O)c-2cc2c1C(=O)C(OC)=CC2=O | 600 nM | 500 nM
CCCCCCn1c2nc(=O)[nH]c(=O)c-2cc2c1C(=O)C(OC)=CC2=O | 4500 nM | 4800 nM
CCCCCCCCn1c2nc(=O)n(-c3ccccc3)c(=O)c-2cc2c1C(=O)C(=O)c1ccccc1-2 | 22900 nM | 3100 nM
CCCn1c2nc(=O)n(C)c(=O)c-2cc2c1C(=O)C(=O)c1ccccc1-2 | 1200 nM | 700 nM
CCCCCCn1c2nc(=O)n(C)c(=O)c-2cc2c1C(=O)C(=O)c1ccccc1-2 | 800 nM | 100 nM
CCCCn1c2nc(=O)n(-c3ccccc3)c(=O)c-2cc2c1C(=O)C(=O)c1ccccc1-2 | 28200 nM | 4900 nM
CCn1c2nc(=O)n(C)c(=O)c-2cc2c3ccccc3cc(OC)c21 | > 50000 nM | > 50000 nM
CCCCn1c2nc(=O)[nH]c(=O)c-2cc2c1C(=O)C(=O)c1ccccc1-2 | 5200 nM | 2100 nM
CCCCCCn1c2nc(=O)n(-c3ccccc3)c(=O)c-2cc2c1C(=O)C(OC)=CC2=O | 400 nM | 1300 nM
CCn1c2nc(=O)n(C)c(=O)c-2cc2c1C(=O)C(=O)c1ccccc1-2 | 300 nM | 100 nM
CCCCCCCCCCCCn1c2nc(=O)n(-c3ccccc3)c(=O)c-2cc2c1C(=O)C(OC)=CC2=O | 300 nM | 2700 nM
CCCCCCCCCCCCn1c2nc(=O)[nH]c(=O)c-2cc2c1C(=O)C(OC)=CC2=O | 12700 nM | 2500 nM
CCCCCCCCCCCCn1c2nc(=O)n(C)c(=O)c-2cc2ccccc21 | > 50000 nM | > 50000 nM
